According to patent US12516016B2, “GPX4 inhibitors, pharmaceutical compositions thereof, and their use for treating GPX4-mediated diseases” (EUBULUS BIOTHERAPEUTICS (HONG KONG) LIMITED, priority 2020, dated 2026):

tested on: hepatocellular carcinoma cell line Hub-7; assay: Cell proliferation assay (CELL-TITER GLO cell viability); format: cell-based; conditions: 24 h, Hub-7 cells, 24 h incubation, read-out: Inhibition of Cell Proliferation EC50
Description: The activity of a test compound was determined in a cell proliferation assay using the hepatocellular carcinoma cell line […]. Cells (4,000 cells per well) were seeded in a 96-well tissue culture plate. After incubated overnight, a test compound was added at predetermined concentrations, starting with 10 μM and followed by 3-fold serial dilution. After the cells were incubated for 24 h, cell viability was determined using a CELL-TITER GLO® assay. The CELL-TITER GLO® reagent (50 μL) was added to each well and the luminescence was measured by a multimode microplate reader after a brief period of shaking. EC50 values were determined for the test compound. The results are summarized in Table 1, wherein A represents a value no greater than 100 nM, B represents a value greater than 100 nM but no greater than 500 nM, C represents a value greater than 500 nM but no greater than 2 μM, D represents a value greater than 2 μM but no greater than 10 μM; and E represents a value greater than 10 μM.

Row | EC50 [nM] | SMILES
1 | > 10000 | C=C(F)C(=O)N(c1cccc(Cl)c1)C(C(=O)NCc1ccccc1)c1ccc(N)cc1 (stereo not drawn) [B3, N-(1-(4-Aminophenyl)-2-(benzylamino)-2-oxoethyl)-N-(3-chlorophenyl)-2-fluoroacrylamide]
2 | > 10000 | C#CC(=O)N(Cc1cc[nH]n1)C1(C(=O)NCc2ccccc2)CCOCC1 [A137, 4-(N-((1H-Pyrazol-3-yl)methyl)propiolamido)-N-benzyltetrahydro-2H-pyran-4-carboxamide]
3 | > 10000 | Cn1ncc2cc(N(C(=O)CCCl)C3(C(=O)NCc4ccccc4)CCOCC3)ccc21 [D5, N-Benzyl-4-(3-chloro-N-(1-methyl-1H-indazol-5-yl)propanamido)tetrahydro-2H-pyran-4-carboxamide]
4 | ≤ 100 | C#CC(=O)N(C1(C(=O)NCc2ccccc2)CCOCC1)C1(c2ccccc2)CC1 [A144, N-Benzyl-4-(N-(1-phenylcyclopropyl)propiolamido)tetrahydro-2H-pyran-4-carboxamide]
5 | > 10000 | Cn1ncc2cc(N(C(=O)C#CCO)C3(C(=O)NCc4ccccc4)CCOCC3)ccc21 [A131, N-Benzyl-4-(4-hydroxy-N-(1-methyl-1H-indazol-5-yl)but-2-ynamido)tetrahydro-2H-pyran-4-carboxamide]
6 | 2000 to 10000 | CC#CC(=O)N(c1ccc2c(cnn2C)c1)C1(C(=O)NCc2ccccc2)CCCOC1 (stereo not drawn) [A126, N-Benzyl-3-(N-(1-methyl-1H-indazol-5-yl)but-2-ynamido)tetrahydro-2H-pyran-3-carboxamide]
7 | 100 to 500 | C#CC(=O)N(c1cccc(Cl)c1)C1(C(=O)NCC(=O)NCc2ccccc2C#N)CCOCC1 [A189, 4-(N-(3-Chlorophenyl)propiolamido)-N-(2-((2-cyanobenzyl)amino)-2-oxoethyl)-tetrahydro-2H-pyran-4-carboxamide]
8 | 100 to 500 | C#CC(=O)N(c1cccc(Cl)c1)C1(C(=O)NCC(=O)Nc2ccccc2)CCOCC1 [A193, 4-(N-(3-Chlorophenyl)propiolamido)-N-(2-oxo-2-(phenylamino)ethyl)tetrahydro-2H-pyran-4-carboxamide]
9 | 100 to 500 | C#CC(=O)N(c1cccc(Cl)c1)C(C(=O)NCc1ccccc1F)c1ccccc1 (stereo not drawn) [A116, N-(3-Chlorophenyl)-N-(2-((2-fluorobenzyl)amino)-2-oxo-1-phenylethyl)-propiolamide]
10 | 100 to 500 | C#CC(=O)N(c1cccn2cnnc12)C(C(=O)NCc1ccccc1)c1ccccc1 (stereo not drawn) [A147, N-([1,2,4]Triazolo[4,3-a]pyridin-8-yl)-N-(2-(benzylamino)-2-oxo-1-phenylethyl)-propiolamide]
11 | 100 to 500 | C#CC(=O)N(c1cccc(Cl)c1)C1(C(=O)NCC(=O)NCc2ccccc2)CCOCC1 [A188, N-(2-(Benzylamino)-2-oxoethyl)-4-(N-(3-chlorophenyl)propiolamido)tetrahydro-2H-pyran-4-carboxamide]
12 | 500 to 2000 | C#CC(=O)N(c1cccc(Cl)c1)C1(C(=O)NCC(=O)OCC)CCOCC1 [A191, Ethyl 2-(4-(N-(3-chlorophenyl)propiolamido)tetrahydro-2H-pyran-4-carboxamido)acetate]
13 | > 10000 | C=CC(=O)N(c1ccc(OC)c(Cl)c1)C(C(=O)NCc1ccccc1)c1cccc(N)c1 (stereo not drawn) [B2, N-(2-(benzylamino)-1-(3-aminophenyl)-2-oxoethyl)-N-(3-chloro-4-methoxyphenyl)acrylamide]
14 | ≤ 100 | C#CC(=O)N(Cc1cccc(O)c1)C1(C(=O)NCc2ccccc2)CCOCC1 [A138, N-Benzyl-4-(N-(3-hydroxybenzyl)propiolamido)tetrahydro-2H-pyran-4-carboxamide]

The remaining lines, values behind:

Row | SMILES | EC50 [nM]
15 | C#CC(=O)N(c1ccc(CO)cc1)C(C(=O)NC(C)(C)C)c1cccc(N)c1 (stereo not drawn) [A26, N-(1-(3-Aminophenyl)-2-(tert-butylamino)-2-oxoethyl)-N-(4-(hydroxymethyl)-phenyl)propiolamide] | 2000 to 10000
16 | C#CC(=O)N(c1cccc(OC)c1)C(C(=O)NCc1ccccc1)c1ccc(N)cc1 (stereo not drawn) [A61, N-(1-(4-Aminophenyl)-2-(benzylamino)-2-oxoethyl)-N-(3-methoxyphenyl)-propiolamide] | ≤ 100
17 | C#CC(=O)N(c1cccc(C(=O)OC)c1)C(C(=O)NCc1ccccc1)c1ccccc1 (stereo not drawn) [A76, Methyl 3-(N-(2-(benzylamino)-2-oxo-1-phenylethyl)propiolamido)benzoate] | ≤ 100
18 | C#CC(=O)N(c1cccc(O)c1)C(C(=O)NCc1ccccc1)c1ccc(N)cc1 (stereo not drawn) [A58, N-(1-(4-Aminophenyl)-2-(benzylamino)-2-oxoethyl)-N-(3-hydroxyphenyl)-propiolamide] | 2000 to 10000
19 | C#CC(=O)N(c1cccc(Cl)c1)C(C(=O)NCc1ccccc1)c1ccc(N)cc1 (stereo not drawn) [A32, N-(1-(4-Aminophenyl)-2-(benzylamino)-2-oxoethyl)-N-(3-chlorophenyl)-propiolamide] | ≤ 100
20 | C#CC(=O)N(c1ccc2ncsc2c1)C(C(=O)NCc1ccccc1)c1ccccc1 (stereo not drawn) [A98, N-(Benzo[d]thiazol-6-yl)-N-(2-(benzylamino)-2-oxo-1-phenylethyl)-propiolamide] | 100 to 500
21 | C#CC(=O)N(c1ccc(O)cc1)C(C(=O)NCc1ccccc1)c1cccc(N)c1 (stereo not drawn) [A45, N-(1-(3-Aminophenyl)-2-(benzylamino)-2-oxoethyl)-N-(4-hydroxyphenyl)-propiolamide] | 2000 to 10000
22 | C#CC(=O)N(c1ccc2c(c1)OCO2)C(C(=O)NCc1ccccc1)c1ccccc1 (stereo not drawn) [A96, N-(Benzo[d][1,3]dioxol-5-yl)-N-(2-(benzylamino)-2-oxo-1-phenylethyl)-propiolamide] | ≤ 100
23 | C#CC(=O)N(c1cccc(CO)c1)C(C(=O)NCc1ccccc1)c1ccc(N)cc1 (stereo not drawn) [A56, N-(1-(4-Aminophenyl)-2-(benzylamino)-2-oxoethyl)-N-(3-(hydroxymethyl)-phenyl)propiolamide] | 2000 to 10000
24 | C#CC(=O)N(c1ccc(Cl)c(Cl)c1)C(C(=O)NCc1ccccc1)c1ccc(N)cc1 (stereo not drawn) [A65, N-(1-(4-Aminophenyl)-2-(benzylamino)-2-oxoethyl)-N-(3,4-dichlorophenyl)-propiolamide] | ≤ 100
25 | C#CC(=O)N(c1ccc(C(=O)OC)cc1)C(C(=O)NCc1ccccc1)c1ccc(N)cc1 (stereo not drawn) [A69, Methyl 4-(N-(1-(4-aminophenyl)-2-(benzylamino)-2-oxoethyl)propiolamido)-benzoate] | ≤ 100
26 | C#CC(=O)N(c1ccc2c(c1)OC(F)(F)O2)C(C(=O)NCc1ccccc1)c1ccccc1 (stereo not drawn) [A99, N-(2-(Benzylamino)-2-oxo-1-phenylethyl)-N-(2,2-difluorobenzo[d][1,3]dioxol-5-yl)propiolamide] | ≤ 100
27 | C#CC(=O)N(c1ccc(OC)cc1)C(C(=O)NC(C)(C)C)c1ccc(N)cc1 (stereo not drawn) [A18, N-(1-(4-Aminophenyl)-2-(tert-butylamino)-2-oxoethyl)-N-(4-methoxyphenyl)-propiolamide] | 500 to 2000
28 | C#CC(=O)N(c1ccc(Cl)c(Cl)c1)C1(C(=O)NCc2ccccc2)CCCCC1 [A109, N-Benzyl-1-(N-(3,4-dichlorophenyl)propiolamido)cyclohexanecarboxamide] | 100 to 500
29 | C#CC(=O)N(c1cccc(Cl)c1)[C@]1(C(=O)NCc2ccccc2)CC[C@H](O)CC1 [A110, (1S,4S)—N-Benzyl-1-(N-(3-chlorophenyl)propiolamido)-4-hydroxycyclohexane-carboxamide] | 100 to 500

same assay, conditions: Hub-7 cells, 24 h incubation, read-out: Inhibition of Cell Proliferation EC50

Row | EC50 [nM] | SMILES
30 | 2000 to 10000 | COc1ccc(N(C(=O)C#CCO)C(C(=O)NCCc2ccccc2)c2cccs2)cc1Cl (stereo not drawn) [A118]
